Results reported in patent publication US10731222B2 (RNA Diagnostics Inc., priority 2013, dated 2020).

Tests used:
[1] = test system: A2780 ovarian cancer cells; experiment: RNA disruption in drug-treated A2780 cells (Agilent Bioanalyzer electropherogram, RDI); type: cell-based, human; conditions: for response of cells in culture to the agent: dose- and time-dependent; for effect of caspase inhibitor on docetaxel-induced RNA disruption: 10 uM inhibitor with 0.2 uM docetaxel
Experimental: RNA was isolated from ovarian cancer cell line A2780 cells which had been treated with 10 μM docetaxel in 50% media or 20 μM epirubicin, each in 50% media. Cells were treated with the chemotherapeutic for 24 hours at 37° C. Isolated RNA was separated by microcapillary electrophoresis using the Agilent 2100 Bioanalyzer.
Cells were plated and treated with docetaxel concentrations ranging from 0.001-40 μM for 24 to 72 hours to assess the effect on cell number, RNA content, and integrity (measured using a Bioanalyzer 2100 from Agilent Technologies, Inc.).
A2780 cells treated for up to 72 hours with docetaxel at 0.005 uM and 0.2 uM, were analyzed for the amount of RNA per cell. RNA was isolated and electophoretically separated using an Agilent Bioanalyzer.
RNA was isolated and electrophoretically separated on an Agilent Bioanalyzer. As shown in FIG. 24D bands appeared just below the 28S (e.g. intermediate) and 18S bands (e.g. low banding region) at 0.005 uM and peaked at 0.2 uM.
A time course experiment was conducted in A2780 cells. Cells were treated for up to 72 hours with docetaxel at 0.005 uM and 0.2 uM. RNA was isolated and run on an Agilent Bioanalyzer.
The effect of a caspase inhibitor on RNA integrity changes was next assessed. Cells were treated with or without docetaxel at a concentration of 0.2 uM in the presence or absence of the caspase inhibitor Q-DEVD-OPH (Biovision Laboratories) at a concentration of 10 uM.

[2] = test system: Colon adenocarcinoma cells SW480; experiment: RNA disruption in colon adenocarcinoma cells SW480; type: cell-based; conditions: 72 hr
Experimental: Colon adenocarcinoma cells SW480 were incubated with Epirubicin, a DNA synthesis inhibitor. RNA was isolated from the cells and analyzed using an Agilent Bioanalyzer.

[3] = Treatment tolerability of single-dose ZA; type: in vivo, human
Experimental: (§1) Patients received a single dose of 4 mg diluted in 100 ml saline, intravenously, in about 15 mins of ZA without any other active concomitant treatments (i.e chemotherapy or endocrine therapy) (Groups 1 and 2). In patients with locally advanced disease, the biological evaluations were performed at baseline on the diagnostic biopsy and repeated after 14 days from ZA administration on a second tru-cut biopsy (Group 1) whereas in patients with bone metastatic disease, CTCs counts along with serological markers were performed before ZA administration, at 48 hours and at 14 days after treatment (Group 2) (FIG. 9).
Patients were evaluated by physical examination, and blood samples were obtained for laboratory analysis.

[4] = test system: locally advanced breast cancer; experiment: Immunohistochemistry of tumour markers (Ki67, CD31, p53, bcl-2, caspase 3) before and 14 days after single-dose ZA, Group 1; type: in vivo, human
Experimental: Enrolled patients received 4 mg single dose of ZA (Zometa®, Novartis, Milan, Italy) before starting any treatment (biological window of 14 days) (FIG. 9). Markers of tumor proliferation/death were tested immunohistochemically and at ATP and RNA level in tumour specimens obtained before and after ZA administration in those patients with locally advanced breast cancer (Group 1) and the count of circulating tumour cells (CTCs) by CellSearch System along with serological markers as marker of tumor dissemination were carried out in metastatic patients (Group 2).
as §1, with “In” for “Patients received a single dose of 4 mg diluted in 100 ml saline, intravenously, in about 15 mins of ZA without any other active concomitant treatments (i.e chemotherapy or endocrine therapy) (Groups 1 and 2). In”
Immunohistochemical evaluation was performed on formalin-fixed paraffin-embedded tumor samples obtained at diagnosis and at 14th days on tru-cut. ER, PgR, overexpression of HER2 and Ki67, CD31 with p53 and bcl-2 staining were performed at the Pathology Unit of the Azienda Ospedaliera-Istituti Ospitalieri of Cremona (Italy). The immunohistochemical methodology is fully described elsewhere. The Caspase 3 immunohistochemistry was performed at the Pathology Unit of Peter MacCallum Cancer Centre (Australia); the used methodology followed that reported by others evaluating protein expression in breast tumours.

[5] = test system: breast cancer T2-4, N 0-1, M0; experiment: Early response studies: RNA Disruption (RDI) 15 days after initiation of therapy; type: in vivo, human
Source text: The Limit of Detection for RDI s RDI=0.3. RDI=1.5, 5 times the Level of Detection, was used as a provisional baseline cut off between nonresponders and responders.

[6] = test system: locally advanced breast cancer; experiment: ATP content of tumour biopsies (ATPlite luminescence), Group 1; type: in vivo, human; conditions: tru-cut after ZA; 230.93 at incisional biopsy; 24 matched pairs; p=0.79
Experimental: ATP content was assayed as previously described using a luminescence assay system (ATPlite, PerkinElmer) according to manufacturing instructions. Briefly, frozen tumor biopsies were minced and homogenized in ice-cold lysis solution provided with the kit using a homogenizer. Membranes and cellular debris were eliminated by centrifuging at 12,000×g for 10 min at 4° C. Protein concentrations were determined by DC protein-assay (Bio-Rad Laboratories). Equal amounts of tissue proteins from each sample (30 μg/50 μl of lysis solution) were incubated with 50 μl of luciferine/luciferase substrate solution and analyzed for ATP content by using a Luminescence Counter (Enspire, PerkinElemer). ATP concentrations were calculated on the basis of an ATP standard-curve and expressed as pmol/mg protein.

[7] = test system: locally advanced breast cancer; experiment: RNA Disruption Index (RDI) of tumour samples before and 14 days after ZA, Group 1; type: in vivo, human; conditions: 14 days after single ZA; baseline 0.63; 14 matched pairs; p<0.0076
Experimental: Tumour samples were shipped in a RNA preservative to Rna Diagnostics (Sudbury, Canada) where they were sub-sectioned to reduce the amount of tissue for RNA isolation based on gross pathology. RNA was then isolated using the Qiagen miRNeasy kit from each portion of the tumour and the RNA analysed using an Agilent Bioanalyzer 2100. […] Mean RDI values were calculated for each tumour sample.

[8] = test system: circulating tumour cells (CTCs); experiment: Circulating tumor cells (CTCs) assay, CellSearch, Group 2; type: in vivo, human; conditions: for median CTC/M30+ve: basal 2
Experimental: as §1
The enumeration of CTC in whole blood was done by the CellSearch System according to manufacturers instruction as described by Cristofanilli et al.. The identification and count of CTCs was performed using the CellSearch Analyzer, a semi-automated fluorescence-based microscopy system that permits computer-generated reconstruction of cellular images. The criteria used are round or oval morphology, a DAPI positivity, positivity for cytokeratin and negative staining for CD45. Results are expressed as number of cells/7.5 ml of blood. Quality control was maintained via the CellSearch CTC Control Kit used to standardize reagents, instruments, and operator technique.
To quantify the fraction of apoptotic CTC, M30-positive CTC were detected integrating CTC assay with a specific mAb (M30 PEVIVA AB, Bromma, Sweden), recognizing the M30 neoepitope of cytokeratin 18 (CK18), analyzed with the fourth filter of the CellSearch System; results were expressed as the total number of CTC and M30-positive CTC per 7.5 mL of blood as described elsewhere.

[9] = test system: cytokeratin 18 (M30, M65); experiment: M30/M65 Apoptosense assay, Group 2; type: in vivo, human; conditions: 14 days after ZA; baseline 335.3 U/L; p=0.039
Experimental: Blood samples were collected from patients at the same time-point as indicated for Group 2 into the K2EDTA anticoagulant tubes, and then centrifuged at 1,500 g for 10 min to obtain plasma. Levels of M30 and M65 were measured in blood samples drawn at 8 am before starting ZA administration and thereafter at 48 hours and at 14 days after the initial treatment (FIG. 9).
M30 and M65 measurements were tested in triplicate accordingly to the manufacturers' instructions (PEVIVA AB, Bromma, Sweden) as previously described in detail.
The M30 is a biomarker assay for the quantitative determination of caspase-cleaved cytokeratin 18 (CK18) released from apoptotic carcinoma cells into blood and may estimate the tumour response to the treatment. Total CK18 (cleaved and non cleaved) is detected by M65. The levels of M30 and M65 were determined on blood samples of metastatic breast cancer patients (Group 2) collected at baseline, at 48 hours and at 14 days after ZA administration at the same time point of CTCs evaluation to assess apoptosis and cell death induced by the treatment. […] M65 levels were statistically significant higher after drug administration (14 days) when compared to the baseline (370.69 U/L versus 335.3 U/L; range 174.2-1646.5 versus 113.7-596.4; p=0.039).

[10] = cited from earlier work
[11] = test system: docetaxel-resistant A2780DXL cells; experiment: Clonogenic assay, docetaxel-resistant cells; type: cell-based; conditions: clonogenic assay
Source text: (§2) A docetaxel A2780 resistant cell line was made as described in Li et al., Int. J. Mol. Med 2004 14(20): 257-264.
RDA like clonogenic assays can be used to identify drugs that are cytotoxic (FIG. 24C iv). […] The cell lines have widely differing sensitivity to docetaxel in a clonogenic assay, with IC50 values differing by over three orders of magnitude.

[12] = test system: docetaxel-resistant A2780DXL cells; experiment: RNA disruption in docetaxel-resistant cells; type: cell-based; conditions: in combination with docetaxel
Experimental: as §2
A time course experiment was conducted. Sensitive parental and docetaxel resistant A2780 cells were treated with docetaxel for 24 hours. RNA was isolated and run on an Agilent Bioanalyzer.
The a\Ability of RDA to detect potentiators of docetaxel (Dxl) sensitivity. […] Thus, RDA may be used to screen for potentiators of chemotherapy drug cytotoxicity.

[13] = test system: Colon adenocarcinoma cells LS174T; experiment: RNA disruption in colon adenocarcinoma cells LS174T; type: cell-based; conditions: 24 hr
Experimental: Colon adenocarcinoma cells LS174T were incubated with Sunitinib, a receptor tyrosine kinase inhibitor. RNA was isolated from the cells and analyzed using an Agilent Bioanalyzer.
RNA was isolated from the cells and analyzed using an Agilent Bioanalyzer.

## N.N.O=C([O-])C1(C(=O)[O-])CCC1.[Pt+2] [carboplatin]
[1]
  response of cells in culture to the agent: RNA disruption

## COc1cccc2c1C(=O)c1c(O)c3c(c(O)c1C2=O)C[C@@](O)(C(=O)CO)C[C@@H]3O[C@H]1C[C@H](N)[C@@H](O)[C@H](C)O1 [epirubicin]
[1]; 20 μM in 50% media, 24 hours, 37° C.
  electropherogram pattern: intermediate bands between the 18S and 28S peaks
[1]
  response of cells in culture to the agent: RNA disruption
[2]
  concentration at which RNA Disruption is evident: 0.5 mM

## Q-DEVD-OPH
[1]
  effect of caspase inhibitor on docetaxel-induced RNA disruption: reduces the loss of 28S and 18S bands at 72 hr
[1]; listed as Q-DEVD-Oph
  effect of caspase inhibitor on docetaxel-induced RNA disruption: significantly reduced RNA disruption

## O=P(O)(O)C(O)(Cn1ccnc1)P(=O)(O)O [ZA, zoledronic acid]
[3]; in vivo
  levels of bone-turnover markers (calcium, PTH, BALP, VIT-D3(1-25)): did not lead significant difference
  osteonecrosis of the jaw or other significant adverse events: No patient developed
[3]; single 4 mg i.v. dose
  tolerability: well tolerated
[3]; with treatment
  mean serum creatinine level: did not vary
[4]; 1 of 31
  specimens with increased bcl-2: 3.2%
  specimens with increased p53: 3.2%
[4]; 3 of 31
  specimens with decreased p53: 9.7%
[4]; 5 of 33 patients, 14 days
  patients with stable Ki67 expression: 15.2%
[4]; 6 of 33 patients, 14 days
  patients with increase in Ki67 expression: 18.2%
[4]; 22 of 33 patients, 14 days
  patients with decrease in Ki67 expression: 66.6%
[4]; 27 of 31
  specimens with unchanged p53: 87.1%
[4]; 30 of 31
  specimens with decreased bcl-2: 96.8%
[4]; 14 days after ZA infusion, basal 18%, n=33, p=0.0032
  median Ki67: 16%
[4]; 14 days, baseline 100%, p<0.00001
  bcl-2 expression (median): 40%
[4]; after treatment (14 days), basal 27%, p=0.0001
  median CD31 expression: 16%
[5]
  Patients Responding (RDI above Baseline RDI = 1.5): 8 patients
  RDI Range, Responding Patients: 1.8-8.9
[6]
  average ATP value: 216.57 pmol/mg protein
[7]
  RDI level: 1.21
[8]; 48 hours after ZA infusion, basal 12, p=0.0012
  median alive CTC: 4 cells/7.5 ml of blood
[8]; 48 hours, p=0.7065
  median CTC/M30+ve: 2 cells/7.5 ml of blood
[8]; 14 days, p=0.018
  median CTC/M30+ve: 3 cells/7.5 ml of blood
[9]
  M65 level: 370.69 U/L
[10]; 24 h post-dose
  plasma concentration relative to Cmax: < 1 % of Cmax
[10]; in vivo
  dose retained in the skeleton or in fat tissue: 60%
[10]; within 24 hours after administration
  dose excreted unmetabolized in the urine: up to 41%

## Cyclosporine A
[11]
  effect on docetaxel sensitivity: restores sensitivity to docetaxel
[12]
  effect on docetaxel-induced RNA disruption (RDI): restored docetaxel's ability to induce RNA disruption

## CC(=O)O[C@H]1C(=O)[C@@]2(C)[C@H]([C@H](OC(=O)c3ccccc3)[C@]3(O)C[C@H](OC(=O)[C@H](O)[C@@H](NC(=O)c4ccccc4)c4ccccc4)C(C)=C1C3(C)C)[C@]1(OC(C)=O)CO[C@@H]1C[C@@H]2O [paclitaxel]
[1]
  response of cells in culture to the agent: RNA disruption

## CCN(CC)CCNC(=O)c1c(C)[nH]c(/C=C2\C(=O)Nc3ccc(F)cc32)c1C [Sunitinib]
[13]
  concentration at which RNA Disruption is evident: 54 mM
